Experimental data from PubChem BioAssay (NCI).
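Dose response: 5 concentrations. Exposure: 48 h. Format: 96-well plates. Endpoint: linear interpolation; highest concentration if not reached. GI50: concentration for 50% inhibition of growth. TGI: concentration producing complete growth inhibition.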

Legend:
Test in all cases: NCI tumour cell line growth inhibition, 48 h
A549 NSCLC = tested on: A549 NSCLC
OVCAR-4 ovarian = tested on: OVCAR-4 ovarian
UACC-62 melanoma = tested on: UACC-62 melanoma
RPMI-8226 leukemia = tested on: RPMI-8226 leukemia
SF-295 CNS = tested on: SF-295 CNS
COLO 205 colon = tested on: COLO 205 colon
OVCAR-5 ovarian = tested on: OVCAR-5 ovarian
SK-MEL-5 melanoma = tested on: SK-MEL-5 melanoma
MCF7 breast = tested on: MCF7 breast
BT-549 breast = tested on: BT-549 breast
MDA-MB-231 breast = tested on: MDA-MB-231 breast
EKVX NSCLC = tested on: EKVX NSCLC
NCI-H23 lung = tested on: NCI-H23 lung
MOLT-4 leukemia = tested on: MOLT-4 leukemia
U251 CNS = tested on: U251 CNS
MDA-MB-468 breast = tested on: MDA-MB-468 breast
SF-539 CNS = tested on: SF-539 CNS
RXF 393 renal = tested on: RXF 393 renal
SNB-75 CNS = tested on: SNB-75 CNS
MDA-MB-435 = tested on: MDA-MB-435
KM12 colon = tested on: KM12 colon
OVCAR-8 ovarian = tested on: OVCAR-8 ovarian
TK-10 renal = tested on: TK-10 renal
SK-MEL-28 melanoma = tested on: SK-MEL-28 melanoma
NCI-H460 lung = tested on: NCI-H460 lung
SN12C renal = tested on: SN12C renal
UO-31 renal = tested on: UO-31 renal
CCRF-CEM leukemia = tested on: CCRF-CEM leukemia
NCI-H226 lung = tested on: NCI-H226 lung
T-47D breast = tested on: T-47D breast
M14 melanoma = tested on: M14 melanoma
MALME-3M melanoma = tested on: MALME-3M melanoma
SF-268 CNS = tested on: SF-268 CNS
ACHN renal = tested on: ACHN renal
IGROV1 ovarian = tested on: IGROV1 ovarian
SNB-19 CNS = tested on: SNB-19 CNS
A498 renal = tested on: A498 renal
UACC-257 melanoma = tested on: UACC-257 melanoma
HCC-2998 colon = tested on: HCC-2998 colon
HS 578T breast = tested on: HS 578T breast
HL-60(TB) leukemia = tested on: HL-60(TB) leukemia
LOX IMVI melanoma = tested on: LOX IMVI melanoma
SR leukemia = tested on: SR leukemia
SK-OV-3 ovarian = tested on: SK-OV-3 ovarian
786-0 renal = tested on: 786-0 renal
HOP-62 NSCLC = tested on: HOP-62 NSCLC
PC-3 prostate = tested on: PC-3 prostate
DU-145 prostate = tested on: DU-145 prostate
HOP-92 NSCLC = tested on: HOP-92 NSCLC
SK-MEL-2 melanoma = tested on: SK-MEL-2 melanoma
K-562 leukemia = tested on: K-562 leukemia
HCT-15 colon = tested on: HCT-15 colon
HCT-116 colon = tested on: HCT-116 colon

With CSc1ccc(C(=O)Nc2ccc3nn(/C(C#N)=C/c4ccccn4)nc3c2)cc1 the GI50 (A549 NSCLC) was 2200 nM, the TGI (A549 NSCLC) was 11000 nM and the GI50 (OVCAR-4 ovarian) was 1740 nM. It also gave a TGI (OVCAR-4 ovarian) of 9640 nM, a GI50 (UACC-62 melanoma) of 819 nM and a TGI (UACC-62 melanoma) of 1720 nM. For the same molecule, the GI50 (RPMI-8226 leukemia) was 901 nM, the TGI (RPMI-8226 leukemia) was 2970 nM and the GI50 (SF-295 CNS) was 2360 nM. It also gave a TGI (SF-295 CNS) of 9150 nM, a GI50 (COLO 205 colon) of 834 nM and a TGI (COLO 205 colon) of 1590 nM. It also gave a GI50 (OVCAR-5 ovarian) of 990 nM, a TGI (OVCAR-5 ovarian) of 2510 nM and a GI50 (SK-MEL-5 melanoma) of 1390 nM. For the same molecule, the TGI (SK-MEL-5 melanoma) was 4700 nM, the GI50 (MCF7 breast) was 687 nM and the TGI (MCF7 breast) was 1650 nM. It also gave a GI50 (BT-549 breast) of 920 nM, a TGI (BT-549 breast) of 1950 nM and a GI50 (MDA-MB-231 breast) of 842 nM. For the same molecule, the TGI (MDA-MB-231 breast) was 1740 nM, the GI50 (EKVX NSCLC) was 1260 nM and the TGI (EKVX NSCLC) was 5950 nM. The GI50 (NCI-H23 lung) was 769 nM, the TGI (NCI-H23 lung) was 1540 nM and the GI50 (MOLT-4 leukemia) was 658 nM. The TGI (MOLT-4 leukemia) was 2270 nM, the GI50 (U251 CNS) was 903 nM and the TGI (U251 CNS) was 1890 nM. For the same molecule, the GI50 (MDA-MB-468 breast) was 558 nM, the TGI (MDA-MB-468 breast) was 1360 nM and the GI50 (SF-539 CNS) was 811 nM. For the same molecule, the TGI (SF-539 CNS) was 1530 nM, the GI50 (RXF 393 renal) was 699 nM and the TGI (RXF 393 renal) was 1360 nM. For the same molecule, the GI50 (SNB-75 CNS) was 948 nM, the TGI (SNB-75 CNS) was 8250 nM and the GI50 (MDA-MB-435) was 759 nM. The TGI (MDA-MB-435) was 2560 nM, the GI50 (KM12 colon) was 1060 nM and the TGI (KM12 colon) was 3080 nM. It also gave a GI50 (OVCAR-8 ovarian) of 1480 nM, a TGI (OVCAR-8 ovarian) of 14200 nM and a GI50 (TK-10 renal) of 935 nM. The TGI (TK-10 renal) was 2200 nM, the GI50 (SK-MEL-28 melanoma) was 885 nM and the TGI (SK-MEL-28 melanoma) was 1820 nM. It also gave a GI50 (NCI-H460 lung) of 934 nM, a TGI (NCI-H460 lung) of 2110 nM and a GI50 (SN12C renal) of 1140 nM. For the same molecule, the TGI (SN12C renal) was 2840 nM, the GI50 (UO-31 renal) was 712 nM and the TGI (UO-31 renal) was 1390 nM. For the same molecule, the GI50 (CCRF-CEM leukemia) was 619 nM, the TGI (CCRF-CEM leukemia) was 50000 nM and the GI50 (NCI-H226 lung) was 1640 nM. For the same molecule, the TGI (NCI-H226 lung) was 9690 nM, the GI50 (T-47D breast) was 1270 nM and the TGI (T-47D breast) was 10900 nM. For the same molecule, the GI50 (M14 melanoma) was 866 nM, the TGI (M14 melanoma) was 1880 nM and the GI50 (MALME-3M melanoma) was 797 nM. It also gave a TGI (MALME-3M melanoma) of 1960 nM, a GI50 (SF-268 CNS) of 1780 nM and a TGI (SF-268 CNS) of 8870 nM. For the same molecule, the GI50 (ACHN renal) was 808 nM, the TGI (ACHN renal) was 1600 nM and the GI50 (IGROV1 ovarian) was 902 nM. The TGI (IGROV1 ovarian) was 1980 nM, the GI50 (SNB-19 CNS) was 2140 nM and the TGI (SNB-19 CNS) was 8790 nM. The GI50 (A498 renal) was 5570 nM, the TGI (A498 renal) was 11900 nM and the GI50 (UACC-257 melanoma) was 1280 nM. The TGI (UACC-257 melanoma) was 4190 nM, the GI50 (HCC-2998 colon) was 854 nM and the TGI (HCC-2998 colon) was 1580 nM. The GI50 (HS 578T breast) was 1700 nM, the TGI (HS 578T breast) was 12600 nM and the GI50 (HL-60(TB) leukemia) was 544 nM. It also gave a TGI (HL-60(TB) leukemia) of 2190 nM, a GI50 (LOX IMVI melanoma) of 664 nM and a TGI (LOX IMVI melanoma) of 1340 nM. The GI50 (SR leukemia) was 327 nM, the TGI (SR leukemia) was 4180 nM and the GI50 (SK-OV-3 ovarian) was 5180 nM. It also gave a TGI (SK-OV-3 ovarian) of 17500 nM, a GI50 (786-0 renal) of 776 nM and a TGI (786-0 renal) of 1500 nM. It also gave a GI50 (HOP-62 NSCLC) of 1750 nM, a TGI (HOP-62 NSCLC) of 6640 nM and a GI50 (PC-3 prostate) of 1510 nM. It also gave a TGI (PC-3 prostate) of 6330 nM, a GI50 (DU-145 prostate) of 1250 nM and a TGI (DU-145 prostate) of 3850 nM. It also gave a GI50 (HOP-92 NSCLC) of 677 nM, a TGI (HOP-92 NSCLC) of 1930 nM and a GI50 (SK-MEL-2 melanoma) of 896 nM. It also gave a TGI (SK-MEL-2 melanoma) of 1900 nM, a GI50 (K-562 leukemia) of 424 nM and a TGI (K-562 leukemia) of 3300 nM. The GI50 (HCT-15 colon) was 511 nM, the TGI (HCT-15 colon) was 1380 nM and the GI50 (HCT-116 colon) was 822 nM. The TGI (HCT-116 colon) was 1640 nM.
